What all share (type): cell-based
The test system of experiment [1] is KAS603, a Chlorella sp. In words: Recovery and measurement of extracellular lipids (hexane sweep, weight, HPLC, TLC) after glyburide treatment. The settings on record: for Weights of oil recovered from outside cells following glyburide treatment: from 1 L of culture. As for the experimental part: Glyburide Dosing: After 48 hours, the sodium oxamate time course was complete. A 1 L sample of each culture was collected and treated to recover oil outside the cells (if any) at t=0. The three cultures that had previously been treated with sodium oxamate were subsequently treated with 0.05 mM glyburide. Extracellular lipids in 1 L aliquots of the cultures were collected at 4 hours and 24 hours after the addition of glyburide by hexane sweep; dry cell weights were also calculated on separate aliquots of the culture. Oils recovered were analyzed via TLC and HPLC.
(§1) Algal growth: KAS603, a Chlorella sp. was scaled in F/2 growth medium to ˜300 L in a vertical air lift bioreactor under 12/12 artificial illumination. Growth of the culture was monitored for density, chlorophyll accumulation, and for the presence of invasive species. Growth kinetics were typical and observation of invasive species was limited (sparse bacteria) and typical. The algae were grown under nutrient rich and light limiting conditions.
(§2) Lipid Analyses: TLC—Dried extracts were resuspended in 100 μl of CHCl3. 2.5 μl of each sample was spotted onto silica gel matrix TLC plates (Sigma #2599) and resolved with hexane:diethyl ether:acetic acid (80:20:1). Carotenoids such as β-carotene were visible as yellow bands on the plate, while chlorophyll and chlorophyll breakdown products were visible as green or green/gray bands, respectively. Lipids other than carotenoids and chlorophyll were visualized with iodine vapors. The extracted samples were compared to commercially available lipid standards consisting of 1 μg/μl each of glyceryl trioleate (TAG), 1,3-Diolein (1,3 DAG), 1,2-dioleoyl-rac-glycerol (1,2 DAG), monoolein (MAG), and oleic acid (FFA).
Recovery and Measurement of Extracellular Lipids: Cells that were exposed to the secretion compound glyburide were swept briefly with hexane at room temperature. 50 ml of hexane was added to 1 L samples from each study group, then mixed thoroughly, but gently, by inversion. The cells were re-centrifuged and the hexane layer containing the recovered lipids was transferred to a pre-weighed vial. The hexane was evaporated and the dried lipids were re-weighed. The dried lipids were subsequently analyzed by TLC or HPLC/MS as described.

Experiment [2] deals with KAS603, a Chlorella sp. The experiment is described as follows: Culture growth: dry weight density and chlorophyll a during compound treatment. The settings on record: four 80 L cultures during the treatment period. As for the experimental part:
Algal growth: KAS603, a Chlorella sp. was scaled in F/2 growth medium to ˜300 L in a vertical air lift bioreactor under 12/12 artificial illumination. Growth of the culture was monitored for density, chlorophyll accumulation, and for the presence of invasive species. Growth kinetics were typical and observation of invasive species was limited (sparse bacteria) and typical. The algae were grown under nutrient rich and light limiting conditions. […] Dry Weight Analysis: 10 ml of control and treated culture samples were pelleted via centrifugation at 3000 rpm for 5 minutes. The pellet was washed 1× with dH2O to remove salts. Following a second centrifugation step, the pellet was transferred to a pre-weighed aluminum dish and dried to a constant weight at 26.5° C. Cellular Growth/Density: Cellular growth and density can be characterized by the concentration of chlorophyll a in a sample. Chlorophyll a absorbs light at 435 nm and 680 nm, which can be accurately measured spectrophotometrically. Prior to the dry weight analysis, 10 ml samples were analyzed for absorbance at 435 nm and 680 nm. Based on the established chlorophyll a standard curve, chlorophyll a was calculated and reported as “mg chlorophyll a”.

In the next experiment the test system is algal cells. In words: Nile Red fluorescence in growth medium after glyburide. The settings on record: following treatment with glyburide.
The test system of experiment [3] is P. Parvum. The experiment is described as follows: Oil secretion in P. Parvum cultures after glyburide (surface sheen, TLC of supernatant extract). As for the experimental part: A control culture of P. Parvum was grown and split into two 500 mL cultures. Glyburide was added to one of the cultures and the culture was shaken for 24 h.
A 1 L P. parvum culture (˜2 million cells/mL) treated with oxamate was split into two subcultures of 400 mL each. Glyburide dissolved in DMSO was added to one subculture. The other subculture received the DMSO carrier (control) that the glyburide had been dissolved in. The two cultures were incubated on the shaker for 24 h and subsequently off the shaker for ˜2 h.
The cells were then pelleted and a 200 mL sample of the culture supernatant was removed from each culture. Each of the removed samples was briefly extracted with nonpolar solvent. The organic extracts were then dried down and the remainder was resuspended in an equal volume of solvent. An equal volume of each (as well as pure TAG as a standard) was loaded on a TLC plate. A chromatogram was developed and stained with iodine vapors. […] Both subcultures had similar amounts of phospholipids (PL). This is likely due to the presence of dead cell membranes in the supernatant extract. Both test samples also had either some monoglycerides (MG) or more likely, the pigment fucoxanthin.

The test system of experiment [4] is KAS603, a Chlorella sp. In words: Total lipid extraction with HPLC/TLC lipid profile after sodium oxamate treatment. As for the experimental part:
Sodium Oxamate Dosing: Sodium oxamate was added to three of the four cultures (see FIG. 1). A 1 L sample was collected at time 0, 24 and 48 hours for each culture (a total of 4 samples per time point). The algal cells were pelleted and oils extracted at each time point. Quantitative oil profiles of extracted lipids were generated by TLC and HPLC.
as §1
Total lipid extraction: 1 L samples were pelleted via centrifugation at 3000 rpm for 5 min. The pellets were resuspended in 10 ml of methanol and incubated at 65° C. for 1 h. The methanol was replaced with chloroform and incubated at 50° C. for 10 min. The chloroform was replaced with hexane and incubated at 50° C. for an additional 10 min. The extracts were pooled and distilled. The weights of the dried extracts were recorded prior to resuspension in 100 μl chloroform for TLC analysis, or in 2:1 chloroform:methanol (v/v) to a final concentration of ˜10 mg/mL and loaded for HPLC analysis (Surveyor LC Pump and Autosampler Plus, Thermo Finnegan). A splitter (Analytical Scientific Instruments) was employed to divide the sample 1:20 between a quadrapole MS (Thermo Finnegan MSQ Plus) and an ELSD (Sedere Sedex 75), respectively.
as §2

In experiment [5] the test system is P. Parvum. The experiment is described as follows: Nile Red fluorescence within cells after sodium oxamate. Conditions: range of sodium oxamate concentrations.
A further experiment concerns Chlorella sp. Described as above. The settings on record: range of sodium oxamate concentrations.
Another experiment deals with Schizochytrium sp. Described as above. The settings on record: range of sodium oxamate concentrations.
Experiment [6] concerns P. Parvum. In words: Growth curves of oxamate treated algae (spike-in). The settings on record: small-scale cultures, oxamate added every three days, vs growth medium only. As for the experimental part: Small-scale […] P. Parvum cultures were grown and treated with oxamate. Four (A-D in FIG. 13) of the small scale cultures were treated with oxamate stock in growth medium, added every three days, corresponding to the points on the curve. Two (E-F in FIG. 13) of the cultures had only growth medium added.

For `COc1ccc(Cl)cc1C(=O)NCCc1ccc(S(=O)(=O)NC(=O)NC2CCCCC2)cc1` [glyburide], the “β-carotene and chlorophyll outside the cells (HPLC)” value in the experiment with KAS603, a Chlorella sp. [1] (0.05 mM glyburide for 24 hrs) is given as “neither β-carotene nor chlorophyll were detected outside the cells”. For the same compound, in the experiment with KAS603, a Chlorella sp. [1] (0.05 mM glyburide, control group not coloured), the “appearance of raw hexane extractions” value is listed as “visibly colored”. For the same compound, the “external oil recovered by hexane sweep (in words)” value was “no immediate increases in external oil” with KAS603, a Chlorella sp. [1] (4 hours after glyburide) and “significantly larger quantities of oil were recovered” in the experiment on KAS603, a Chlorella sp. [1] (24 hours after glyburide exposure). Besides, the “Weights of oil recovered from outside cells following glyburide treatment” value with KAS603, a Chlorella sp. [1] (T = 0 (at glyburide addition), cultures pre-treated 48 h with 0.3 mM sodium oxamate, listed as GLB1) is 0.0003 g; in the experiment on KAS603, a Chlorella sp. [1] (T = 0 (at glyburide addition), cultures pre-treated 48 h with 0.3 mM sodium oxamate, listed as GLB2), 0.0002 g; in the experiment with KAS603, a Chlorella sp. [1] (T = 0 (at glyburide addition), cultures pre-treated 48 h with 0.3 mM sodium oxamate, listed as GLB3) it was 0.0003 g; in the experiment with KAS603, a Chlorella sp. [1] (T = 4 hours after 0.05 mM glyburide, oxamate pre-treated cultures, listed as GLB1), 0.0002 g; in the experiment on KAS603, a Chlorella sp. [1] (T = 4 hours after 0.05 mM glyburide, oxamate pre-treated cultures, listed as GLB2), 0.0004 g; in the experiment with KAS603, a Chlorella sp. [1] (T = 4 hours after 0.05 mM glyburide, oxamate pre-treated cultures, listed as GLB3), 0.0004 g. The “Weights of oil recovered from outside cells following glyburide treatment” value in the experiment on KAS603, a Chlorella sp. [1] (T = 24 hours after 0.05 mM glyburide, oxamate pre-treated cultures, listed as GLB1) amounted to 0.0016 g; with KAS603, a Chlorella sp. [1] (T = 24 hours after 0.05 mM glyburide, oxamate pre-treated cultures, listed as GLB2), 0.0014 g; with KAS603, a Chlorella sp. [1] (T = 24 hours after 0.05 mM glyburide, oxamate pre-treated cultures, listed as GLB3), 0.0013 g. The “quantity of lipid species of intermediate polarity (between FFA and 1,3DG) in extracellular lipids, TLC” value with KAS603, a Chlorella sp. [1] (glyburide treated groups vs control) was “significantly increased”. For the same compound, in the experiment on KAS603, a Chlorella sp. [1] (glyburide treated vs untreated, 24 h), the “external hydrocarbon (HPLC)” value is reported as “An increase in external hydrocarbon”. For the same compound, the “effect of compound treatment on culture growth” value with KAS603, a Chlorella sp. [2] is “no evidence that compound treatment slowed growth”. In addition, in the experiment on algal cells, the “Nile Red fluorescence in the growth medium environment” value is “an increase in Nile Red fluorescence”. The “oily sheen on the culture surface” value in the experiment on P. Parvum [3] (500 mL culture, glyburide 24 h, no oxamate, vs control culture) is “much more prevalent”. Also, in the experiment with P. Parvum [3] (glyburide/oxamate-treated subculture vs DMSO control on oxamate), the “lipid (TAG) in culture supernatant extract, TLC” value is reported as “increase the production and/or secretion of lipid, specifically triacylglyceride (TAG)”. The “swirls of secreted oil on the culture surface” value in the experiment with P. Parvum [3] (oxamate treated culture, 400 mL subculture, glyburide in DMSO 24 h, control had very few swirls) was “a number of swirls on the surface”.

Regarding `NC(=O)C(=O)[O-].[Na+]` [sodium oxamate], the “uncharacterized polar lipids (HPLC)” value with KAS603, a Chlorella sp. [4] (0.3 mM sodium oxamate at 48 h vs untreated control at time 0) is given as “increases in uncharacterized polar lipids”. In the experiment with KAS603, a Chlorella sp. [4] (0.3 mM sodium oxamate, treated versus untreated groups), the “chlorophyll and total lipids in total extracts (HPLC)” value was “increases in chlorophyll and total lipids were detected”. The “TAG accumulation in oil extracts” value with KAS603, a Chlorella sp. [4] (0.3 mM sodium oxamate, up to 48 h) is listed as “Significant TAG accumulation was not found”. Besides, the “quantity of "other" lipid species” value in the experiment with KAS603, a Chlorella sp. [4] (oxamate treated cultures vs untreated) is “trended higher”. In addition, the “undefined lipids (UN) in total extracts by TLC” value in the experiment on KAS603, a Chlorella sp. [4] (oxamate treated vs untreated groups) was “did not differ between treated and untreated groups”. In the experiment on KAS603, a Chlorella sp. [4] (throughout the oxamate treatment phase), the “Hydrocarbon (HC) and β-carotene (BC) concentrations, TLC of total extracts” value is on record as “remained consistent”. In addition, in the experiment on KAS603, a Chlorella sp. [2], the “effect of compound treatment on culture growth” value is listed as “no evidence that compound treatment slowed growth”. The “Nile Red fluorescence within cells” value with P. Parvum [5], with Chlorella sp. and in the experiment with Schizochytrium sp. was “increases in Nile Red fluorescence” throughout. For the same compound, the cell concentrations achieved entry in the experiment with P. Parvum [6] is listed as “higher cell concentrations than did the controls”. Further, the “onset of culture decline” value in the experiment with P. Parvum [6] is “began to decline sooner than the controls”.

The values above are taken from patent US10041096B2, “Methods and products for generating oils” (The Texas A&M University System, priority 2011, dated 2018).
